Assay results as given in ChEMBL document CHEMBL1135452, “Side-chain homologation of nodulisporic acid: synthesis of potent new dienyl derivatives” (Bioorg Med Chem Lett, 2002).

Test system: Pulicinae
Assay: In vitro systemic flea efficacy using membrane feeding assay.
Format: functional

SMILES | Activity
C=CC/C(=C\C=C\[C@]1(C)[C@@H](O)CC[C@@]2(C)[C@H]1CCC1Cc3c(n4c5c(c6c(cc35)C3=CC(C)(C)OC(C)(C)C3[C@@H]6O)C(=O)[C@@H]4C(=C)C)[C@@]12C)C(=O)NCC (some centres undefined) | 1 p.p.m.
C=C(C)[C@H]1C(=O)c2c3c(cc4c5c(n1c24)[C@@]1(C)C(CC[C@H]2[C@](C)(/C=C/C=C/C(=O)NCc4ccccc4)[C@@H](O)CC[C@@]21C)C5)C1=CC(C)(C)OC(C)(C)C1[C@@H]3O (some centres undefined) | 10 p.p.m.
C=C(C)[C@H]1C(=O)c2c3c(cc4c5c(n1c24)[C@@]1(C)C(CC[C@H]2[C@](C)(/C=C/C=C\C(N)=O)[C@@H](O)CC[C@@]21C)C5)C1=CC(C)(C)OC(C)(C)C1[C@@H]3O (some centres undefined) | 10 p.p.m.
C=C(C)[C@H]1C(=O)c2c3c(cc4c5c(n1c24)[C@@]1(C)C(CC[C@H]2[C@](C)(/C=C/C=C/C(=O)O)[C@@H](O)CC[C@@]21C)C5)C1=CC(C)(C)OC(C)(C)C1[C@@H]3O (some centres undefined) | 10 p.p.m.
C=C(C)[C@H]1C(=O)c2c3c(cc4c5c(n1c24)[C@@]1(C)C(CC[C@H]2[C@](C)(/C=C/C=C(\F)C(=O)NCC)[C@@H](O)CC[C@@]21C)C5)C1=CC(C)(C)OC(C)(C)C1[C@@H]3O (some centres undefined) | 1 p.p.m.
C=C(C)[C@H]1C(=O)c2c3c(cc4c5c(n1c24)[C@@]1(C)C(CC[C@H]2[C@](C)(/C=C/C=C(\CCC)C(=O)NCC)[C@@H](O)CC[C@@]21C)C5)C1=CC(C)(C)OC(C)(C)C1[C@@H]3O (stereo in doubt) | 10 p.p.m.
C=C(C)[C@H]1C(=O)c2c3c(cc4c5c(n1c24)[C@@]1(C)C(CC[C@H]2[C@](C)(/C=C/C=C/P(=O)(OCC)OCC)[C@@H](O)CC[C@@]21C)C5)C1=CC(C)(C)OC(C)(C)C1[C@@H]3O (some centres undefined) | 10 p.p.m.
C=C(C)[C@H]1C(=O)c2c3c(cc4c5c(n1c24)[C@@]1(C)C(CC[C@H]2[C@](C)(/C=C/C(C)=C/C(=O)NC4CC4)[C@@H](O)CC[C@@]21C)C5)C1=CC(C)(C)OC(C)(C)C1[C@@H]3O (some centres undefined) | 1 p.p.m.
C=C(C)[C@H]1C(=O)c2c3c(cc4c5c(n1c24)[C@@]1(C)C(CC[C@H]2[C@](C)(/C=C/C=C(\CCC)C(=O)NCC)[C@@H](O)CC[C@@]21C)C5)C1=CC(C)(C)OC(C)(C)C1[C@@H]3O (stereo in doubt; 45) | 1 p.p.m.
C=C(C)[C@H]1C(=O)c2c3c(cc4c5c(n1c24)[C@@]1(C)C(CC[C@H]2[C@](C)(/C=C/C=C/C(=O)OCC)[C@@H](O)CC[C@@]21C)C5)C1=CC(C)(C)OC(C)(C)C1[C@@H]3O (some centres undefined) | 1 p.p.m.
C=C(C)[C@H]1C(=O)c2c3c(cc4c5c(n1c24)[C@@]1(C)C(CC[C@H]2[C@](C)(/C=C/C=C(\OC)C(=O)NC(C)(C)C)[C@@H](O)CC[C@@]21C)C5)C1=CC(C)(C)OC(C)(C)C1[C@@H]3O (some centres undefined) | 1 p.p.m.
C=C(C)[C@H]1C(=O)c2c3c(cc4c5c(n1c24)[C@@]1(C)C(CC[C@H]2[C@](C)(/C=C/C=C(\CC)C(=O)N4CCCC4)[C@@H](O)CC[C@@]21C)C5)C1=CC(C)(C)OC(C)(C)C1[C@@H]3O (some centres undefined) | 10 p.p.m.
C=C(C)[C@H]1C(=O)c2c3c(cc4c5c(n1c24)[C@@]1(C)C(CC[C@H]2[C@](C)(/C=C/C=C/C(N)=O)[C@@H](O)CC[C@@]21C)C5)C1=CC(C)(C)OC(C)(C)C1[C@@H]3O (some centres undefined) | 1 p.p.m.
C=CCOC(=O)/C=C/C=C/[C@]1(C)[C@@H](O)CC[C@@]2(C)[C@H]1CCC1Cc3c(n4c5c(c6c(cc35)C3=CC(C)(C)OC(C)(C)C3[C@@H]6O)C(=O)[C@@H]4C(=C)C)[C@@]12C (some centres undefined) | 1 p.p.m.
C=C(C)[C@H]1C(=O)c2c3c(cc4c5c(n1c24)[C@@]1(C)C(CC[C@H]2[C@](C)(/C=C/C=C/C(=O)N(C)C)[C@@H](O)CC[C@@]21C)C5)C1=CC(C)(C)OC(C)(C)C1[C@@H]3O (some centres undefined) | 0.1 p.p.m.
C=C(C)[C@H]1C(=O)c2c3c(cc4c5c(n1c24)[C@@]1(C)C(CC[C@H]2[C@](C)(/C=C/C=C/C(=O)NC(C)(C)C)[C@@H](O)CC[C@@]21C)C5)C1=CC(C)(C)OC(C)(C)C1[C@@H]3O (some centres undefined) | 1 p.p.m.
C=C(C)[C@H]1C(=O)c2c3c(cc4c5c(n1c24)[C@@]1(C)C(CC[C@H]2[C@](C)(/C=C/C=C/C(C)=O)[C@@H](O)CC[C@@]21C)C5)C1=CC(C)(C)OC(C)(C)C1[C@@H]3O (some centres undefined) | 10 p.p.m.
C=C(C)[C@H]1C(=O)c2c3c(cc4c5c(n1c24)[C@@]1(C)C(CC[C@H]2[C@](C)(/C=C/C=C(\CC)C(=O)N(C)C)[C@@H](O)CC[C@@]21C)C5)C1=CC(C)(C)OC(C)(C)C1[C@@H]3O (some centres undefined) | 1 p.p.m.
C=C(C)[C@H]1C(=O)c2c3c(cc4c5c(n1c24)[C@@]1(C)C(CC[C@H]2[C@](C)(/C=C/C=C/C(=O)N4CCCC4)[C@@H](O)CC[C@@]21C)C5)C1=CC(C)(C)OC(C)(C)C1[C@@H]3O (some centres undefined) | 1 p.p.m.
C=C(C)[C@H]1C(=O)c2c3c(cc4c5c(n1c24)[C@@]1(C)C(CC[C@H]2[C@](C)(/C=C/C=C(\F)C(=O)NC(C)(C)C)[C@@H](O)CC[C@@]21C)C5)C1=CC(C)(C)OC(C)(C)C1[C@@H]3O (some centres undefined) | 1 p.p.m.
C=C(C)[C@H]1C(=O)c2c3c(cc4c5c(n1c24)[C@@]1(C)C(CC[C@H]2[C@](C)(/C=C/C=C(\CCC)C(=O)O)[C@@H](O)CC[C@@]21C)C5)C1=CC(C)(C)OC(C)(C)C1[C@@H]3O (some centres undefined) | > 10 p.p.m.
C=C(C)[C@H]1C(=O)c2c3c(cc4c5c(n1c24)[C@@]1(C)C(CC[C@H]2[C@](C)(/C=C/C=C(\OC)C(=O)NCC)[C@@H](O)CC[C@@]21C)C5)C1=CC(C)(C)OC(C)(C)C1[C@@H]3O (some centres undefined) | 10 p.p.m.

SMILES | Activity
C=C(C)[C@H]1C(=O)c2c3c(cc4c5c(n1c24)[C@@]1(C)C(CC[C@H]2[C@](C)(/C=C/C=C(\C(C)=O)C(=O)N(C)C)[C@@H](O)CC[C@@]21C)C5)C1=CC(C)(C)OC(C)(C)C1[C@@H]3O (some centres undefined) | 1 p.p.m.
C=C(C)[C@H]1C(=O)c2c3c(cc4c5c(n1c24)[C@@]1(C)C(CC[C@H]2[C@](C)(/C=C/C=C/C(=O)NCC)[C@@H](O)CC[C@@]21C)C5)C1=CC(C)(C)OC(C)(C)C1[C@@H]3O (some centres undefined) | 1 p.p.m.
C=CC/C(=C\C=C\[C@]1(C)[C@@H](O)CC[C@@]2(C)[C@H]1CCC1Cc3c(n4c5c(c6c(cc35)C3=CC(C)(C)OC(C)(C)C3[C@@H]6O)C(=O)[C@@H]4C(=C)C)[C@@]12C)C(N)=O (some centres undefined) | 1 p.p.m.
C=CC/C(=C\C=C\[C@]1(C)[C@@H](O)CC[C@@]2(C)[C@H]1CCC1Cc3c(n4c5c(c6c(cc35)C3=CC(C)(C)OC(C)(C)C3[C@@H]6O)C(=O)[C@@H]4C(=C)C)[C@@]12C)C(=O)NC(C)(C)C (some centres undefined) | 10 p.p.m.
C=C(C)[C@H]1C(=O)c2c3c(cc4c5c(n1c24)[C@@]1(C)C(CC[C@H]2[C@](C)(/C=C/C=C(\OC)C(N)=O)[C@@H](O)CC[C@@]21C)C5)C1=CC(C)(C)OC(C)(C)C1[C@@H]3O (some centres undefined) | 10 p.p.m.
C=C(C)[C@H]1C(=O)c2c3c(cc4c5c(n1c24)[C@@]1(C)C(CC[C@H]2[C@](C)(/C=C/C(C)=C/C(=O)NC(C)C)[C@@H](O)CC[C@@]21C)C5)C1=CC(C)(C)OC(C)(C)C1[C@@H]3O (some centres undefined) | 1 p.p.m.
C=C(C)[C@H]1C(=O)c2c3c(cc4c5c(n1c24)[C@@]1(C)C(CC[C@H]2[C@](C)(/C=C/C=C(\C)C(=O)O)[C@@H](O)CC[C@@]21C)C5)C1=CC(C)(C)OC(C)(C)C1[C@@H]3O (some centres undefined) | 1 p.p.m.
C=C(C)[C@H]1C(=O)c2c3c(cc4c5c(n1c24)[C@@]1(C)C(CC[C@H]2[C@](C)(/C=C/C(C)=C/C(=O)NCC)[C@@H](O)CC[C@@]21C)C5)C1=CC(C)(C)OC(C)(C)C1[C@@H]3O (some centres undefined) | 10 p.p.m.
C=C(C)[C@H]1C(=O)c2c3c(cc4c5c(n1c24)[C@@]1(C)C(CC[C@H]2[C@](C)(/C=C/C=C(\CCC)C(N)=O)[C@@H](O)CC[C@@]21C)C5)C1=CC(C)(C)OC(C)(C)C1[C@@H]3O (some centres undefined) | 10 p.p.m.
C=CC/C(=C\C=C\[C@]1(C)[C@@H](O)CC[C@@]2(C)[C@H]1CCC1Cc3c(n4c5c(c6c(cc35)C3=CC(C)(C)OC(C)(C)C3[C@@H]6O)C(=O)[C@@H]4C(=C)C)[C@@]12C)C(=O)OC (some centres undefined) | 10 p.p.m.
C=C(C)[C@H]1C(=O)c2c3c(cc4c5c(n1c24)[C@@]1(C)C(CC[C@H]2[C@](C)(/C=C/C=C/C(=O)OCc4ccccc4)[C@@H](O)CC[C@@]21C)C5)C1=CC(C)(C)OC(C)(C)C1[C@@H]3O (some centres undefined) | 10 p.p.m.
C=C(C)[C@H]1C(=O)c2c3c(cc4c5c(n1c24)[C@@]1(C)C(CC[C@H]2[C@](C)(/C=C/C=C(\CCC)C(=O)NC(C)(C)C)[C@@H](O)CC[C@@]21C)C5)C1=CC(C)(C)OC(C)(C)C1[C@@H]3O (some centres undefined) | 10 p.p.m.
C=C(C)[C@H]1C(=O)c2c3c(cc4c5c(n1c24)[C@@]1(C)C(CC[C@H]2[C@](C)(/C=C/C=C(\CC)C(=O)O)[C@@H](O)CC[C@@]21C)C5)C1=CC(C)(C)OC(C)(C)C1[C@@H]3O (some centres undefined) | 10 p.p.m.
C=C(C)[C@H]1C(=O)c2c3c(cc4c5c(n1c24)[C@@]1(C)C(CC[C@H]2[C@](C)(/C=C/C=C(\OC)C(=O)O)[C@@H](O)CC[C@@]21C)C5)C1=CC(C)(C)OC(C)(C)C1[C@@H]3O (some centres undefined) | 10 p.p.m.
C=C(C)[C@H]1C(=O)c2c3c(cc4c5c(n1c24)[C@@]1(C)C(CC[C@H]2[C@](C)(/C=C/C=C(\CC)C(N)=O)[C@@H](O)CC[C@@]21C)C5)C1=CC(C)(C)OC(C)(C)C1[C@@H]3O (some centres undefined) | 1 p.p.m.
C=C(C)[C@H]1C(=O)c2c3c(cc4c5c(n1c24)[C@@]1(C)C(CC[C@H]2[C@](C)(/C=C/C=C(\CCCC)C(=O)NC(C)(C)C)[C@@H](O)CC[C@@]21C)C5)C1=CC(C)(C)OC(C)(C)C1[C@@H]3O (some centres undefined) | 10 p.p.m.
C=C(C)[C@H]1C(=O)c2c3c(cc4c5c(n1c24)[C@@]1(C)C(CC[C@H]2[C@](C)(/C=C/C(C)=C/C(=O)O)[C@@H](O)CC[C@@]21C)C5)C1=CC(C)(C)OC(C)(C)C1[C@@H]3O (some centres undefined) | 10 p.p.m.
C=C(C)[C@H]1C(=O)c2c3c(cc4c5c(n1c24)[C@@]1(C)C(CC[C@H]2[C@](C)(/C=C/C=C(\C#N)C(=O)N(C)C)[C@@H](O)CC[C@@]21C)C5)C1=CC(C)(C)OC(C)(C)C1[C@@H]3O (some centres undefined) | 1 p.p.m.
C=C(C)[C@H]1C(=O)c2c3c(cc4c5c(n1c24)[C@@]1(C)C(CC[C@H]2[C@](C)(/C=C/C(C)=C/C(=O)NC(C)(C)C)[C@@H](O)CC[C@@]21C)C5)C1=CC(C)(C)OC(C)(C)C1[C@@H]3O (some centres undefined) | 10 p.p.m.
C=C(C)[C@H]1C(=O)c2c3c(cc4c5c(n1c24)[C@@]1(C)C(CC[C@H]2[C@](C)(/C=C/C=C(\CCCC)C(=O)NCC)[C@@H](O)CC[C@@]21C)C5)C1=CC(C)(C)OC(C)(C)C1[C@@H]3O (some centres undefined) | 1 p.p.m.
C=C(C)[C@H]1C(=O)c2c3c(cc4c5c(n1c24)[C@@]1(C)C(CC[C@H]2[C@](C)(/C=C/C=C/C(=O)OC(C)(C)C)[C@@H](O)CC[C@@]21C)C5)C1=CC(C)(C)OC(C)(C)C1[C@@H]3O (some centres undefined) | 10 p.p.m.
C=C(C)[C@H]1C(=O)c2c3c(cc4c5c(n1c24)[C@@]1(C)C(CC[C@H]2[C@](C)(/C=C/C=C(\OC)C(=O)NC(C)(C)C)[C@@H](O)CC[C@@]21C)C5)C1=CC(C)(C)OC(C)(C)C1C3 (some centres undefined) | > 10 p.p.m.
